Experimental data reported in ChEMBL document CHEMBL1146718, “Discovery of a potent, selective and orally active canine COX-2 inhibitor, 2-(3-difluoromethyl-5-phenyl-pyrazol-1-yl)-5-methanesulfonyl-pyridine” (Bioorg Med Chem Lett, 2004).

What was measured:
[1] = in vivo; conditions: dog, po, 5 mg/kg
[2] = in vivo; conditions: dog, plasma, po, 5 mg/kg
[3] = in vivo; conditions: dog, po, 5 mg/kg; remark: listed apart in the source
[4] = in vivo; conditions: dog, po, 5 mg/kg; remark: listed apart in the source
[5] = in vivo; conditions: dog, plasma, po, 5 mg/kg; remark: listed apart in the source

| SMILES | Tmax [1] [h] | AUC [2] [ng·h/mL] | half-life [3] [h] | concentration at 24 h [4] [ng/mL] | Cmax [5] [ng/mL] |
| --- | --- | --- | --- | --- | --- |
| CS(=O)(=O)c1ccc(-n2nc(C(F)F)cc2-c2ccc(F)cc2)nc1 | 1.3 | 7650 | 17 | 329 | 509 |
| CS(=O)(=O)c1ccc(-n2nc(C(F)F)cc2-c2ccccc2)nc1 | 1.5 |  | 26 |  | 1090 |
| CS(=O)(=O)c1ccc(-n2nc(C(F)(F)F)cc2-c2ccccc2)nc1 | 0.8 | 4280 | 13.1 | 77 | 611 |
| CS(=O)(=O)c1ccc(-n2nc(C(F)(F)F)cc2-c2ccc(F)cc2)nc1 | 0.8 | 4820 | 17.5 | 134 | 540 |
| Cc1ccc(-c2cc(C(F)(F)F)nn2-c2ccc(S(N)(=O)=O)cc2)cc1 [CELECOXIB] |  | 3100 | 3.3 |  | 540 |
